Measured values published in ChEMBL document CHEMBL4130473, “Design, synthesis and biological evaluation of 4,7,12,12a-tetrahydro-5H-thieno[3',2':3,4]pyrido[1,2-b]isoquinolines as novel adenosine 5'-monophosphate-activated protein kinase (AMPK) indirect activators for the treatment of type 2 diabetes” (Eur J Med Chem, 2017).
pIC50: −log10 of the molar value. Calls of active or inactive are those of the source. The rule behind the calls is not given here.

Tests used:
[1] = target: AMP-activated protein kinase alpha-1/beta-2/gamma-3 (Homo sapiens) (UniProt O43741+Q13131+Q9UGI9); assay: Activation of human recombinant AMPKalpha1beta2gamma3 expressed in Escherichia coli at 20 uM incubated for 1 hr using serine/threonine kinase substrate
Hepatocyte [2] = assay: Inhibition of glucose production in Sprague-Dawley rat primary hepatocytes grown under gluconeogenic medium assessed as glucose production level at 5 uM incubated for 6 hrs by glucose assay reagent based glucose oxidase method (reference value: 100%); type: functional; parameters: scale not given: the % may be the effect or the level left
L6 [3] = assay: Inhibition of oxygen consumption rate in rat L6 cells; type: functional, cell-based
Rattus norvegicus = assay: Clearance in Sprague-Dawley rat at 2 mg/kg, iv; type: ADME, organism-based; conditions: in vivo
[4] = Tmax in C57BL/6J mouse at 10 mg/kg, po; type: ADME, organism-based; conditions: in vivo
Mus musculus [5] = assay: Antidiabetic activity in db/db mouse assessed as reduction in fasting blood glucose level at 120 mg/kg/day dosed via gavage for 4 weeks measured during 2 to 4 weeks; type: functional, organism-based
L6 [6] = assay: Inhibition of mitochondrial membranes potential in rat L6 cells assessed as mitochondrial membranes potential level at 20 uM incubated for 40 mins by JC1 dye staining based fluorescence assay (reference value: 100 +/- 2.8%); type: functional; parameters: scale not given: the % may be the effect or the level left
[7] = target: AMPK alpha2/beta2/gamma1 (Homo sapiens) (UniProt P54646+O43741+P54619); assay: Activation of human recombinant AMPKalpha2beta2gamma1 expressed in Escherichia coli at 20 uM incubated for 1 hr using serine/threonine kinase substrate
[8] = target: AMPK alpha1/beta2/gamma1 (Homo sapiens) (UniProt O43741+P54619+Q13131); assay: Activation of human recombinant AMPKalpha1beta2gamma1 expressed in Escherichia coli at 20 uM incubated for 1 hr using serine/threonine kinase substrate
L6 [9] = assay: Stimulation of glucose consumption in rat L6 cells at 20 uM incubated for 12 hrs by glucose assay reagent based glucose oxidase method relative to untreated control; type: functional
[10] = AUCt in Sprague-Dawley rat at 2 mg/kg, iv; type: ADME, organism-based; conditions: in vivo
[11] = target: AMP-activated protein kinase (AMPK) alpha-1/beta-1/gamma-1 (Homo sapiens) (UniProt P54619+Q9Y478+Q13131); assay: Activation of human recombinant AMPKalpha1beta1gamma1 expressed in Escherichia coli at 20 uM incubated for 1 hr using serine/threonine kinase substrate
[12] = target: Voltage-gated inwardly rectifying potassium channel KCNH2 (Homo sapiens, UniProt Q12809); assay: Inhibition of human ERG by patch clamp assay
[13] = Inhibition of oxygen consumption rate in isolated mitochondria from rat L6 cells assessed as oxygen consumption level at 2.5 uM (reference value: 100 +/- 1.9%); type: functional; parameters: scale not given: the % may be the effect or the level left
[14] = Tmax in Sprague-Dawley rat at 10 mg/kg, po; type: ADME, organism-based; conditions: in vivo
Mus musculus [15] = assay: Antidiabetic activity in db/db mouse assessed as effect on glucose tolerance capacity by measuring blood glucose AUC level at 120 mg/kg/day dosed via gavage for 4 weeks by OGTT; type: functional, organism-based
[16] = Cmax in Sprague-Dawley rat at 10 mg/kg, po; type: ADME, organism-based; parameters: dose 10 mg/kg, route oral; conditions: in vivo
[17] = target: AMPK alpha2/beta1/gamma1 (Homo sapiens) (UniProt P54646+P54619+Q9Y478); assay: Activation of human recombinant AMPKalpha2beta1gamma1 expressed in Escherichia coli at 20 uM incubated for 1 hr using serine/threonine kinase substrate
[18] = MRT in Sprague-Dawley rat at 2 mg/kg, iv; type: ADME, organism-based; conditions: in vivo
[19] = AUC in Sprague-Dawley rat at 2 mg/kg, iv; type: ADME, organism-based; conditions: in vivo
L6 [20] = assay: Activation of AMPKalpha in rat L6 cells assessed as increase in AMPKalpha Thr172 phosphorylation incubated for 1 hrs by Western blot method; type: cell-based
[21] = AUCt in Sprague-Dawley rat at 10 mg/kg, po; type: ADME, organism-based; conditions: in vivo
L6 [22] = assay: Inhibition of oxygen consumption rate in rat L6 cells assessed as oxygen consumption level at 20 uM (reference value: 100 +/- 1.6%); type: functional; parameters: scale not given: the % may be the effect or the level left
[23] = target: AMPK alpha1/beta1/gamma2 (Homo sapiens) (UniProt Q9UGJ0+Q9Y478+Q13131); assay: Activation of human recombinant AMPKalpha1beta1gamma2 expressed in Escherichia coli at 20 uM incubated for 1 hr using serine/threonine kinase substrate
[24] = Tmax in Sprague-Dawley rat at 2 mg/kg, iv; type: ADME, organism-based; conditions: in vivo
[25] = Half life in Sprague-Dawley rat at 10 mg/kg, po; type: ADME, organism-based; conditions: in vivo
[26] = target: AMP-activated protein kinase alpha-2/beta-1/gamma-3 (Homo sapiens) (UniProt P54646+Q9Y478+Q9UGI9); assay: Activation of human recombinant AMPKalpha2beta1gamma3 expressed in Escherichia coli at 20 uM incubated for 1 hr using serine/threonine kinase substrate
[27] = MRT in Sprague-Dawley rat at 10 mg/kg, po; type: ADME, organism-based; conditions: in vivo
[28] = Cmax in C57BL/6J mouse at 10 mg/kg, po; type: ADME, organism-based; parameters: dose 10 mg/kg, route oral; conditions: in vivo
[29] = Oral bioavailability in Sprague-Dawley rat at 10 mg/kg; type: ADME, organism-based; conditions: in vivo
[30] = Cmax in Sprague-Dawley rat at 2 mg/kg, iv; type: ADME, organism-based; parameters: dose 2 mg/kg, route intravenous; conditions: in vivo
L6 [31] = assay: Activation of AMPKalpha in rat L6 cells assessed as increase in ACC phosphorylation incubated for 1 hrs by Western blot method; type: cell-based
Hepatocyte [32] = assay: Inhibition of glucose production in Sprague-Dawley rat primary hepatocytes grown under gluconeogenic medium assessed as glucose production level at 10 uM incubated for 6 hrs by glucose assay reagent based glucose oxidase method (reference value: 100%); type: functional; parameters: scale not given: the % may be the effect or the level left
[33] = Half life in Sprague-Dawley rat at 2 mg/kg, iv; type: ADME, organism-based; conditions: in vivo
[34] = Inhibition of oxygen consumption rate in isolated mitochondria from rat L6 cells assessed as oxygen consumption level at 10 uM (reference value: 100 +/- 1.9%); type: functional; parameters: scale not given: the % may be the effect or the level left
[35] = MRT in C57BL/6J mouse at 10 mg/kg, po; type: ADME, organism-based; conditions: in vivo
Hepatocyte [36] = assay: Potency index, ratio of berberine potency to compound potency for inhibition of glucose production in Sprague-Dawley rat primary hepatocytes grown under gluconeogenic medium aincubated for 6 hrs by glucose assay reagent based glucose oxidase method; type: functional
[37] = AUC in C57BL/6J mouse at 10 mg/kg, po; type: ADME, organism-based; conditions: in vivo
[38] = Inhibition of oxygen consumption rate in isolated mitochondria from rat L6 cells assessed as oxygen consumption level at 1.2 uM (reference value: 100 +/- 1.9%); type: functional; parameters: scale not given: the % may be the effect or the level left
[39] = target: AMP-activated protein kinase alpha-2/beta-2/gamma-2 (Homo sapiens) (UniProt P54646+O43741+Q9UGJ0); assay: Activation of human recombinant AMPKalpha2beta2gamma2 expressed in Escherichia coli at 20 uM incubated for 1 hr using serine/threonine kinase substrate
L6 [40] = assay: Inhibition of oxygen consumption rate in rat L6 cells assessed as oxygen consumption level at 10 uM (reference value: 100 +/- 1.6%); type: functional; parameters: scale not given: the % may be the effect or the level left
[41] = Inhibition of oxygen consumption rate in isolated mitochondria from rat L6 cells assessed as oxygen consumption level at 5 uM (reference value: 100 +/- 1.9%); type: functional; parameters: scale not given: the % may be the effect or the level left
[42] = AUC in Sprague-Dawley rat at 10 mg/kg, po; type: ADME, organism-based; conditions: in vivo
L6 [43] = assay: Inhibition of oxygen consumption rate in isolated mitochondria from rat L6 cells; type: functional
[44] = AUCt in C57BL/6J mouse at 10 mg/kg, po; type: ADME, organism-based; conditions: in vivo
Hepatocyte [45] = assay: Inhibition of glucose production in Sprague-Dawley rat primary hepatocytes grown under gluconeogenic medium incubated for 6 hrs by glucose assay reagent based glucose oxidase method (reference value: 100%); type: functional, cell-based
Hepatocyte [46] = assay: Inhibition of glucose production in Sprague-Dawley rat primary hepatocytes grown under gluconeogenic medium assessed as glucose production level at 20 uM incubated for 6 hrs by glucose assay reagent based glucose oxidase method (reference value: 100%); type: functional; parameters: scale not given: the % may be the effect or the level left

Chain of Voltage-gated inwardly rectifying potassium channel KCNH2 (Q12809 whole entry): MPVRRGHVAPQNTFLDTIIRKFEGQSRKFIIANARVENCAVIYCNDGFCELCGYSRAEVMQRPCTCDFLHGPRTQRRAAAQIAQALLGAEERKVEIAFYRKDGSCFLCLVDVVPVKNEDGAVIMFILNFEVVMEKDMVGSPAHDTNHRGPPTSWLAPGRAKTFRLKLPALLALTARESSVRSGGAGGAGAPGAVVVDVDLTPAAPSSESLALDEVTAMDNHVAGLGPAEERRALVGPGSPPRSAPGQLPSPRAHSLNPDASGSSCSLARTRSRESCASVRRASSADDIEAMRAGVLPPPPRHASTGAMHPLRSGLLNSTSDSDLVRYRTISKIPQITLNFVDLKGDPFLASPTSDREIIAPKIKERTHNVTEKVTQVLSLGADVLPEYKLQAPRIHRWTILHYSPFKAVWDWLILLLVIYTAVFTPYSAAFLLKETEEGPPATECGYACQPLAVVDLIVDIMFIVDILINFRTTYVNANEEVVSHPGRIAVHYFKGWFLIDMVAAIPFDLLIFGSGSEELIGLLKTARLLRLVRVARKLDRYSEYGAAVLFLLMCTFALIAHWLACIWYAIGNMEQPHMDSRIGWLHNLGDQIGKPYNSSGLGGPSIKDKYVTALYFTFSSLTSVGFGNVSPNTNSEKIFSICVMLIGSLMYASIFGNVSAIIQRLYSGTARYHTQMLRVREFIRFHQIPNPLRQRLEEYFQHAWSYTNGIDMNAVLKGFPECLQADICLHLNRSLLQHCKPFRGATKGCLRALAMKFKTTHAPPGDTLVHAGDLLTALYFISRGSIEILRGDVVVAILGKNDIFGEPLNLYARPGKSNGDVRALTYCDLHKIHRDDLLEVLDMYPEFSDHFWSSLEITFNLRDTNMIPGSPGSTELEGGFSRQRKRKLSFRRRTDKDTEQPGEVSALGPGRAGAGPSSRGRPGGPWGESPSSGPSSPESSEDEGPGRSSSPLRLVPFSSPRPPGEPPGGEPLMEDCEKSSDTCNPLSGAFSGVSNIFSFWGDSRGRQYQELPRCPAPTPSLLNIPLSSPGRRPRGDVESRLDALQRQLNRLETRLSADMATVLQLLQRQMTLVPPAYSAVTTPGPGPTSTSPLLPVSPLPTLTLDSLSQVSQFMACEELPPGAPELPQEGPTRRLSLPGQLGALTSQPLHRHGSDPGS
Chain of AMP-activated protein kinase (AMPK) alpha-1/beta-1/gamma-1 (Homo sapiens) (P54619 whole entry): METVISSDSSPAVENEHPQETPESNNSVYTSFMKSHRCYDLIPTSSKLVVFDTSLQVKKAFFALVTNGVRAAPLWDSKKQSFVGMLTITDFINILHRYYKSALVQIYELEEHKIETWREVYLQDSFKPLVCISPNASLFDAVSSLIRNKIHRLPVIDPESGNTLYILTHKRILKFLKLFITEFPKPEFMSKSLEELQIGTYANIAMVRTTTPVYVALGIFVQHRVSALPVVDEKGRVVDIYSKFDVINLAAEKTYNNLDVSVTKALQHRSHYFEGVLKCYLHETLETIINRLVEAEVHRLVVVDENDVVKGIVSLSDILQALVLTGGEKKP
Chain of AMP-activated protein kinase (AMPK) alpha-1/beta-1/gamma-1 (Homo sapiens) (Q13131 whole entry partner): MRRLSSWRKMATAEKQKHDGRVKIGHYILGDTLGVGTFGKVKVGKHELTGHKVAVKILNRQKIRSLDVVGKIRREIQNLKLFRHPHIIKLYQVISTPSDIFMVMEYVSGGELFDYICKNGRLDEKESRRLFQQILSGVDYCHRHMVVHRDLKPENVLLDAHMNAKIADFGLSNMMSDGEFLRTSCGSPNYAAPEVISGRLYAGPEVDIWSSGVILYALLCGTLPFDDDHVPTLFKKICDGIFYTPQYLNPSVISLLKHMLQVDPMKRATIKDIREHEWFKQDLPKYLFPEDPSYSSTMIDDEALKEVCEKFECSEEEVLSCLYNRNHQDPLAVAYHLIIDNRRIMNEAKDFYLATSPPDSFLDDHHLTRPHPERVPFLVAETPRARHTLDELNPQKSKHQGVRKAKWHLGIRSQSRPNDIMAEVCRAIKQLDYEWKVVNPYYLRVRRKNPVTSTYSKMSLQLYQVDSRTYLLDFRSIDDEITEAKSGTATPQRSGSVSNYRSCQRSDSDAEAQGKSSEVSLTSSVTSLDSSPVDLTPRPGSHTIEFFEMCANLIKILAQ
Chain of AMP-activated protein kinase (AMPK) alpha-1/beta-1/gamma-1 (Homo sapiens) (Q9Y478 2-270 partner limits assumed): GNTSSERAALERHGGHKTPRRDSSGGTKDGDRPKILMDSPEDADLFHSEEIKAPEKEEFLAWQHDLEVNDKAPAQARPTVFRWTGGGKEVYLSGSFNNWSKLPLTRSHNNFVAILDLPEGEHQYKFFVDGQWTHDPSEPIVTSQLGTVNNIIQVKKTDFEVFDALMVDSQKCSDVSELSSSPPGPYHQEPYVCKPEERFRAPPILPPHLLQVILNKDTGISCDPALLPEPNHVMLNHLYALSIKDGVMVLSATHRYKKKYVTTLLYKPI
Chain of AMPK alpha2/beta1/gamma1 (Homo sapiens) (P54619 whole entry partner): as the sequence (P54619 whole entry) above
Chain of AMPK alpha2/beta1/gamma1 (Homo sapiens) (P54646 whole entry): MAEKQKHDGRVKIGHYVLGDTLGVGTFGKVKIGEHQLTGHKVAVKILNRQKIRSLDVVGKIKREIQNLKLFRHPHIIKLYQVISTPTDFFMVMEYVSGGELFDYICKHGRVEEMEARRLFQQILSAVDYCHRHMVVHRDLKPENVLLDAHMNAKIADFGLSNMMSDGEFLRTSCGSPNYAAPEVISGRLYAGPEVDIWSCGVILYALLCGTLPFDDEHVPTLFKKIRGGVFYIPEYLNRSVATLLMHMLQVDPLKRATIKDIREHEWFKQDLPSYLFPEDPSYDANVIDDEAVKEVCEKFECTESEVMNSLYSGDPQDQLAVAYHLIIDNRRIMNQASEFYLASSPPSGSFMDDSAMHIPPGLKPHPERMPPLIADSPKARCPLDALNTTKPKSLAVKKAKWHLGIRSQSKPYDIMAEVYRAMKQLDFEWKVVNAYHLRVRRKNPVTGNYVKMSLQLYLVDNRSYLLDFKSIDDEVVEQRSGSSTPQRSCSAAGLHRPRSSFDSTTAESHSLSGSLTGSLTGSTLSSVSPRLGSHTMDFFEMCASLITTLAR
Chain of AMPK alpha2/beta1/gamma1 (Homo sapiens) (Q9Y478 2-270 partner limits assumed): as the sequence (Q9Y478 2-270 partner limits assumed) above
Chain of AMPK alpha1/beta2/gamma1 (Homo sapiens) (O43741 whole entry, looked up): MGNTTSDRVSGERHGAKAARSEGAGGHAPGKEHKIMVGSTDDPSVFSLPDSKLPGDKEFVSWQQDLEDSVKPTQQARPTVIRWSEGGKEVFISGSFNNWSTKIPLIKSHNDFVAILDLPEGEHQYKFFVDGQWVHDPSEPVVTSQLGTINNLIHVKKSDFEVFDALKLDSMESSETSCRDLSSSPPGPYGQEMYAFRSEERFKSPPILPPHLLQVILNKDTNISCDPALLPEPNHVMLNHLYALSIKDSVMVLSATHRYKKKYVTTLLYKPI
Chain of AMPK alpha1/beta2/gamma1 (Homo sapiens) (P54619 whole entry, looked up): as the sequence (P54619 whole entry) above
Chain of AMPK alpha1/beta2/gamma1 (Homo sapiens) (Q13131 whole entry, looked up): as the sequence (Q13131 whole entry partner) above

- Activity [1]: inactive
- clearance (Rattus norvegicus): 76.7 mL/min/kg
- Tmax [4]: 0.25 h
- Activity [7]: inactive
- Activity [8]: inactive
- AUC(0-t) [10]: 364 ng·h/mL
- Activity [11]: inactive
- Tmax [14]: 0.5 h
- Cmax [16]: 162 ng/mL
- Activity [17]: inactive
- MRT [18]: 5.8 h
- AUC [19]: 432 ng·h/mL
- AUC(0-t) [21]: 825 ng·h/mL
- Activity [23]: inactive
- Tmax [24]: 0.25 h
- half-life [25]: 7.2 h
- Activity [26]: inactive
- MRT [27]: 5.5 h
- Cmax [28]: 113 ng/mL
- bioavailability [29]: 45.4%
- Cmax [30]: 114 ng/mL
- half-life [33]: 10.8 h
- MRT [35]: 5.1 h
- AUC [37]: 244 ng·h/mL
- Activity [39]: inactive
- AUC [42]: 889 ng·h/mL
- AUC(0-t) [44]: 188 ng·h/mL
- inhibition (Hepatocyte [45]): Dose-dependent effect
SMILES: CCc1cc2c(s1)CCN1Cc3c(OC)ccc(OC)c3CC21 (configuration not stated)
- Activity (Hepatocyte [2]): 25.7%
- inhibition (L6 [3]): Dose-dependent effect
- Activity (Mus musculus [5]): Active
- Activity (L6 [6]): 59.5%
- Activity (L6 [9]): 228.3%
- pIC50 [12]: 4.98
- Activity [13]: 66.3%
- Activity (Mus musculus [15]): inactive
- Activity (L6 [20]): Dose-dependent effect
- Activity (L6 [22]): 47.5%
- Activity (L6 [31]): Dose-dependent effect
- Activity (Hepatocyte [32]): 16.3%
- Activity [34]: 41.7%
- Ratio (Hepatocyte [36]): 1.7
- Activity [38]: 76.2%
- Activity (L6 [40]): 54%
- Activity [41]: 54%
- inhibition (L6 [43]): Dose-dependent effect
- Activity (Hepatocyte [46]): 14.9%
